Literature values as cited in patent US20180015074A1, “USE OF MTOR INHIBITORS TO PREVENT AND REGRESS EDHESIONS AND FIBROSIS” (THE BOARD OF REGENTS OF THE UNIVERSITY OF TEXAS SYSTEM, priority 2015, published 2018).
Read-outs that look alike come from different tables or passages of the source.

Legend:
post-surgical adhesions = conditions: daily IP injection immediately following surgery, rat
[1] = tested on: wound strength in the intestine and abdominal fascia

- wound infections (post-surgical adhesions): higher rate of wound infections
- wound strength ([1]; administration delayed 2-4 days post-surgery): ameliorated this loss
- wound strength ([1]; administration immediately following surgery): serious loss of wound strength
Compound: CO[C@H]1C[C@@H]2CC[C@@H](C)[C@@](O)(O2)C(=O)C(=O)N2CCCC[C@H]2C(=O)O[C@H]([C@H](C)C[C@@H]2CC[C@@H](O)[C@H](OC)C2)CC(=O)[C@H](C)/C=C(\C)[C@@H](O)[C@@H](OC)C(=O)[C@H](C)C[C@H](C)/C=C/C=C/C=C/1C [rapamycin, (3S,6R,7E,9R,10R,12R,14S,15E,17E,19E,21S,23S,26R,27R,34aS)-9,10,12,13,14,-21,22,23,24,25,26,27,32,33,34,34a-hexadecahydro-9,27-dihydroxy-3-[(1R)-2-[-(1S,3R,4R)-4-hydroxy-3-methoxycyclohexyl]-1-methylethyl]-10,21-dimethoxy-6,8,12,14,20,26-hexamethyl-23,27-epoxy-3H-pyrido[2,1-c][1,4]oxaazacyclohent-ria-contine-1,5,11,28,29(4H,6H,31H)-pentone]
